Test results as given in patent US7951827B2, “Synthesis and antiprotozoal activity of dicationic 3,5-diphenylisoxazoles” (The University of North Carolina at Chapel Hill, priority 2005, dated 2011).
Counter-ions that a name gives are not always drawn. Like-named read-outs stand apart in the source and are kept apart here.

Legend:
Plasmodium falciparum = experiment: In vitro antiprotozoal activity against Plasmodium falciparum; type: cell-based
Method: (§1) In vitro antiprotozoal activities, see Ismail, M. A., et al., J. Med. Chem. 46, 4761-4769 (2003), and cytotoxicity were measured following established protocols, see Balz, T., et al., EMBO J., 4, 1273-1277 (1985); Räz. B., et al., Acta Trop., 68:139-147 (1997); and Sperandeo, N. R. et al., Chem. Biochem., 4, 69-73 (2003). […] Other positive controls employed were melarsoprol (against T. brucei), chloroquine, and artemisinin (against P. falciparum), and podophyllotoxin (against VERO cells).

[1] = Cytotoxicity to VERO cells; type: cell-based, African green monkey (Cercopithecus Aethiops); conditions: African green monkey (Cercopithecus aethiops)
Method: as §1

[2] = system: Trypanosoma brucei brucei; experiment: In vitro antiprotozoal activity against Trypanosoma brucei brucei; type: cell-based
Method: as §1

VERO cells = experiment: Cytotoxicity to VERO cells; type: cell-based, African green monkey (Cercopithecus Aethiops)
Method: as §1

[3] = Plasmodium falciparum, Table 1, read-out: IC50 (μM) Plasmodium falciparum
[4] = IC50 (μM) Cytotoxicity VERO cells
[5] = Trypanosoma brucei, Table 1, read-out: IC50 (μM) Trypanosoma brucei brucei
[6] = Trypanosoma brucei, read-out: IC50 values against T. brucei brucei
[7] = Table 1, read-out: IC50 (μM) Plasmodium falciparum
[8] = Table 1, read-out: IC50 (μM) Trypanosoma brucei brucei
[9] = Plasmodium falciparum, read-out: antiplasmodial IC50 values (P. falciparum)
[10] = Table 1, read-out: IC50 (μM) Cytotoxicity VERO cells

| SMILES | melting point | IC50 (Plasmodium falciparum; [3]) | IC50 [2, 5] | IC50 (Plasmodium falciparum; [9]) | IC50 [1, 4] | further results |
| --- | --- | --- | --- | --- | --- | --- |
| N=C(N)c1ccc(-c2cc(-c3ccccc3)on2)cc1 (as salt: hydrochloride) [Compound 2, 3-(4-Amidinophenyl)-5-phenylisoxazole] | 287 to 292 °C |  |  |  |  |  |
| CCN(CC)CCCC(C)Nc1ccnc2cc(Cl)ccc12 (stereo not drawn) [Chloroquine, reference compound] |  |  |  |  |  | IC50 (Plasmodium falciparum; Plasmodium falciparum, read-out: IC50 (μM) Plasmodium falciparum): 0.104 µM |
| Cl.N=C(N)c1ccc(-c2cc(-c3ccccc3)no2)cc1 [Compound 1, 5-(4-Amidinophenyl)-3-phenylisoxazole hydrochloride] | 262 to 265 °C | 3.3 µM | 1.72 µM |  | 19.1 µM |  |
| N=C(N)c1ccc(-c2cc(-c3ccccc3)on2)cc1 [Compound 2, 3-(4-Amidinophenyl)-5-phenylisoxazole] |  | 3.3 µM | 1.12 µM |  | 18.5 µM |  |
| N=C(N)c1ccc(-c2cc(-c3ccc(C(=N)N)cc3)on2)cc1 [Compound 3, 3,5-Bis(4-amidinophenyl)isoxazole dihydrochloride] |  | 0.0226 µM | 0.0051 µM |  | 2.13 µM | IC50 [2, 6]: 0.0035 to 0.009 µM; IC50 ([2]; dihydrochloride, read-out: IC50 values against T. brucei brucei): 0.0051 µM |
| c1cc(-c2cc(-c3ccc(C4=NCCN4)cc3)on2)ccc1C1=NCCN1 [Compound 5, 3,5-Bis[4-(2-imidazolinyl)phenyl]isoxazole dihydrochloride] |  |  |  |  |  | IC50 (Plasmodium falciparum; [7]): 0.0041 µM; IC50 (VERO cells): 1.81 µM; IC50 [2, 8]: 0.0872 µM |
| Cl.Cl.N=C(N)c1ccc(-c2cc(-c3ccc(C(=N)N)cc3[N+](=O)[O-])no2)cc1 [Compound 9, 3-(4-Amidino-2-nitrophenyl)-5-(4-amidinophenyl)isoxazole dihydrochloride] | 350 °C (dec.) | 0.0401 µM | 0.0324 µM |  | 22.2 µM |  |
| N=C(N)c1ccc(-c2cc(-c3ccc(C(=N)N)cc3Cl)no2)cc1 [Compound 10, 3-(4-Amidino-2-chlorophenyl)-5-(4-amidinophenyl)isoxazole dihydrochloride] |  | 0.0555 µM | 0.0232 µM |  | 5.69 µM |  |
| N=C(N)c1ccc(-c2cc(-c3cccc(C(=N)N)c3)no2)cc1 [Compound 13, 3-(3-Amidinophenyl)-5-(4-amidinophenyl)isoxazole dihydrochloride] |  | 0.0578 µM | 0.0063 µM | 0.0578 µM | 24.1 µM | IC50 [2, 6]: 0.0035 to 0.009 µM |
| c1cc(C2=NCCN2)cc(-c2cc(-c3ccc(C4=NCCN4)cc3)on2)c1 [Compound 15, 3-[3-(2-Imidazolinyl)phenyl]-5-[4-(2-imidazolinyl)phenyl]isoxazole dihydrochloride] |  |  |  |  |  | IC50 (Plasmodium falciparum; [7]): 0.0512 µM; IC50 (VERO cells; [10]): 65 µM; IC50 [2, 8]: 1.55 µM |
| Cl.Cl.N=C(N)c1cccc(-c2cc(-c3ccc(C(=N)N)cc3[N+](=O)[O-])on2)c1 [Compound 16, 5-(4-Amidino-2-nitrophenyl)-3-(3-amidinophenyl)isoxazole dihydrochloride] | 225 °C | 0.0259 µM | 0.009 µM | 0.008 to 0.03 µM | 48 µM | IC50 [2, 6]: 0.0035 to 0.009 µM |
| c1cc(C2=NCCN2)cc(-c2cc(-c3ccc(C4=NCCN4)cc3)no2)c1 [Compound 24, 3-[4-(2-Imidazolinyl)phenyl]-5-[3-(2-imidazolinyl)phenyl]isoxazole dihydrochloride] |  |  |  |  |  | IC50 (Plasmodium falciparum; [7]): 0.077 µM; IC50 (VERO cells; [10]): 30.2 µM; IC50 [2, 8]: 0.974 µM |
| c1cc(C2=NCCN2)cc(-c2cc(-c3cccc(C4=NCCN4)c3)on2)c1 [Compound 34, 3,5-Bis[3-(2-imidazolinyl)phenyl]isoxazole dihydrochloride] |  |  |  |  |  | IC50 (Plasmodium falciparum; [7]): 0.227 µM; IC50 (VERO cells; [10]): 26.2 µM; IC50 [2, 8]: 18.5 µM |
| Cl.Cl.N=C(N)c1cccc(-c2cc(-c3cc(C(=N)N)ccc3[N+](=O)[O-])on2)c1 [Compound 35, 5-(5-Amidino-2-nitrophenyl)-3-(3-amidinophenyl)isoxazole dihydrochloride] | 222 °C (dec.) | 0.334 µM | 1.63 µM |  | 9.8 µM |  |
| N=C(N)c1cccc(-c2cc(-c3cc(C(=N)N)ccc3Cl)no2)c1 [Compound 39, 3-(5-Amidino-2-chlorophenyl)-5-(3-amidinophenyl)isoxazole dihydrochloride] |  | 0.0306 µM | 0.0463 µM |  | 55.5 µM |  |
| COc1ccc(C(=N)NC(C)C)cc1-c1cc(-c2cc(C(=N)NC(C)C)ccc2OC)on1.Cl.Cl [Compound 42, 3,5-Bis[5-(N-isopropyl)amidino-2-methoxyphenyl]isoxazole dihydrochloride] | 185 °C (dec.) | 0.0932 µM | 0.374 µM |  | 21.7 µM |  |
| COc1ccc(C2=NCCN2)cc1-c1cc(-c2cc(C3=NCCN3)ccc2OC)on1 [Compound 43, 3,5-Bis[5-(2-imidazolinyl)-2-methoxyphenyl]isoxazole dihydrochloride] |  |  |  |  |  | IC50 (Plasmodium falciparum; [7]): 0.0114 µM; IC50 (VERO cells): 164 µM; IC50 [2, 8]: 0.0448 µM |
| Nc1nc(N)nc(Nc2ccc([As]3SCC(CO)S3)cc2)n1 (stereo not drawn) [Melarsoprol, reference compound] |  |  |  |  |  | IC50 ([2]; Trypanosoma brucei, read-out: IC50 (μM) Trypanosoma brucei brucei): 0.00637 µM |
| COc1cc([C@@H]2c3cc4c(cc3[C@H](O)[C@H]3COC(=O)[C@H]23)OCO4)cc(OC)c1OC [Podophyllotoxin, reference compound] |  |  |  |  |  | IC50 [1, 10]: 0.0186 µM |

More lines, main results first:

| melting point | IC50 (Plasmodium falciparum; [3]) | IC50 [2, 5] | IC50 (Plasmodium falciparum; [9]) | SMILES | IC50 [1, 4] | further results |
| --- | --- | --- | --- | --- | --- | --- |
|  | 0.0067 µM |  |  | C[C@@H]1CC[C@H]2[C@@H](C)C(=O)O[C@@H]3O[C@@]4(C)CC[C@@H]1[C@]32OO4 [Artemisinin, reference compound] |  |  |
| > 350 °C (dec.) | 0.0149 µM | 0.0139 µM | 0.008 to 0.03 µM | Cl.Cl.N=C(N)c1ccc(-c2cc(-c3ccc(C(=N)N)cc3[N+](=O)[O-])on2)cc1 [Compound 6, 5-(4-Amidino-2-nitrophenyl)-3-(4-amidinophenyl)isoxazole dihydrochloride] | 15.8 µM |  |
| > 350 °C (dec.) | 0.0079 µM | 0.0155 µM | < 0.008 µM | Cl.Cl.N=C(N)c1ccc(-c2cc(-c3ccc(C(=N)N)cc3Cl)on2)cc1 [Compound 7, 5-(4-Amidino-2-chlorophenyl)-3-(4-amidinophenyl)isoxazole dihydrochloride] | 41 µM |  |
| 242 to 245 °C | 0.0187 µM | 0.0063 µM | 0.008 to 0.03 µM | Cl.Cl.N=C(N)c1cccc(-c2cc(-c3ccc(C(=N)N)cc3Cl)on2)c1 [Compound 17, 5-(4-Amidino-2-chlorophenyl)-3-(3-amidinophenyl)isoxazole dihydrochloride] | 82.7 µM | IC50 [2, 6]: 0.0035 to 0.009 µM |
| 348 °C | 0.0071 µM | 0.0212 µM | < 0.008 µM | Cl.Cl.N=C(N)c1ccc(-c2cc(-c3cc(C(=N)N)ccc3Cl)no2)cc1 [Compound 20, 3-(5-Amidino-2-chlorophenyl)-5-(4-amidinophenyl)isoxazole dihydrochloride] | 5.67 µM |  |
| 336 to 338 °C | 0.0025 µM | 0.0035 µM |  | Cl.Cl.N=C(N)c1ccc(-c2cc(-c3cccc(C(=N)N)c3)on2)cc1 [Compound 22, 3-(4-Amidinophenyl)-5-(3-amidinophenyl)isoxazole di hydrochloride] | 31.2 µM | IC50 [2, 6]: 0.0035 to 0.009 µM |
| 356 to 358 °C (dec.) | 0.0035 µM | 0.0209 µM | < 0.008 µM | Cl.Cl.N=C(N)c1ccc(-c2cc(-c3cc(C(=N)N)ccc3Cl)on2)cc1 [Compound 25, 5-(5-Amidino-2-chlorophenyl)-3-(4-amidinophenyl)isoxazole dihydrochloride] | 71.4 µM |  |
| 240 to 242 °C | 0.0116 µM | 0.0043 µM | 0.008 to 0.03 µM | COc1ccc(C(=N)N)cc1-c1cc(-c2ccc(C(=N)N)cc2)no1.Cl.Cl [Compound 26, 5-(5-Amidino-2-methoxyphenyl)-3-(4-amidinophenyl)isoxazole dihydrochloride] | 52.8 µM | IC50 [2, 6]: 0.0035 to 0.009 µM |
| 210 °C (dec.) | 0.0141 µM | 0.0116 µM | 0.008 to 0.03 µM | Cl.Cl.N=C(N)c1cccc(-c2cc(-c3ccc(C(=N)N)cc3Cl)no2)c1 [Compound 28, 3-(4-Amidino-2-chlorophenyl)-5-(3-amidinophenyl)isoxazole dihydrochloride] | 87.4 µM |  |
| 210 °C (dec.) | 0.0174 µM | 0.027 µM | 0.008 to 0.03 µM | COc1ccc(C(=N)N)cc1-c1cc(-c2cccc(C(=N)N)c2)on1.Cl.Cl [Compound 40, 3-(5-Amidino-2-methoxyphenyl)-5-(3-amidinophenyl)isoxazole dihydrochloride] | 215 µM |  |
| 240 °C (dec.) | 0.0211 µM | 0.0042 µM | 0.008 to 0.03 µM | COc1ccc(C(=N)N)cc1-c1cc(-c2cc(C(=N)N)ccc2OC)on1.Cl.Cl [Compound 41, 3,5-Bis(5-amidino-2-methoxyphenyl)isoxazole dihydrochloride] | 79.9 µM | IC50 [2, 6]: 0.0035 to 0.009 µM |
